Test results published in the Deep4Chem optical property database.

test: solvent given as SMILES; conditions: in CCOCC

| SMILES | emission maximum |
| --- | --- |
| CC(=O)c1ccc(NC(=O)c2ccc(N(C)C)cc2)cc1 | 470 nm |

same assay, conditions: in CN(C)C=O

| SMILES | emission maximum |
| --- | --- |
| c1ccc(N(c2ccccc2)c2ccc(-c3cccc4nc5ccccc5cc34)cc2)cc1 | 566 nm |
| Oc1ccccc1/N=C/c1ccccc1Oc1ccccc1 | 418 nm |
| CCN(CC)c1ccc2c(-c3ccccc3C(=O)[O-])c3ccc(=[N+](CC)CC)cc-3oc2c1 | 588 nm |

same assay, conditions: in CO

| emission maximum | SMILES |
| --- | --- |
| 582 nm | O=S(=O)(/N=c1\oc2cccc3c4c(-c5ccccc5)oc5cccc(c(c1-c1ccccc1)c23)c54)C(F)(F)F |
| 679 nm | CN1/C(=C/C=C(/C=C/c2sc3ccccc3[n+]2C)c2ccccc2)Sc2ccccc21 |
| 611 nm | O=C(O)C1=C/C(=C/C=[N+]2/c3cc(O)c(C[C@@H]4O[C@H](CO)[C@@H](O)C(O)[C@H]4O)cc3C[C@H]2C(=O)O)C[C@@H](C(=O)O)N1 (some centres not stated) |

| SMILES | emission maximum |
| --- | --- |
| CCC1=C(C)C2=C(C)c3cccn3[B-](F)(F)[N+]2=C1C | 512.5 nm |
| Oc1ccccc1/N=C/c1ccccc1Oc1ccccc1 | 414 nm |

same assay, conditions: in CS(C)=O

| SMILES | emission maximum |
| --- | --- |
| O=S(=O)(/N=c1\oc2cccc3c4c(-c5ccccc5)oc5cccc(c(c1-c1ccccc1)c23)c54)C(F)(F)F | 596 nm |
| CN1/C(=C/C=C(/C=C/c2sc3ccccc3[n+]2C)c2ccccc2)Sc2ccccc21 | 683 nm |
| COc1ccc(/C=C/c2cc(/C=C/c3ccc(OC)cc3)nc(/C=C/c3ccc(C(F)(F)F)cc3)n2)cc1 | 475 nm |
| Oc1ccccc1/N=C/c1ccccc1Oc1ccccc1 | 410 nm |

same assay, conditions: in Cc1ccccc1

| SMILES | emission maximum |
| --- | --- |
| CC(C)(C)c1ccc2c3c(c4ccc(C(C)(C)C)cc4c2c1)=[N+]1C(=C(c2ccccc2)c2c(Br)c4c5ccc(C(C)(C)C)cc5c5cc(C(C)(C)C)ccc5c4n2[B-]1(F)F)C=3Br | 715 nm |
| CCC1=C(C)C2=Cc3c4ccccc4c4n3[B-](c3ccc5cc6ccccc6cc5c3)(Oc3ccccc3-4)[N+]2=C1C (configuration not stated) | 641 nm |
| N#Cc1c(-n2c3ccccc3c3ccccc32)cc(N2c3ccccc3C(c3ccccc3)(c3ccccc3)c3ccccc32)cc1-n1c2ccccc2c2ccccc21 | 471 nm |
| CC(C)[Si](C#Cc1ccc(-c2c3cccc4c5cccc6c(-c7ccc(C#C[Si](C(C)C)(C(C)C)C(C)C)cc7)c7cccc8c9cccc2c9c(c34)c(c65)c78)cc1)(C(C)C)C(C)C | 744 nm |
| C1=[N+](c2ccccc2)[B-]2(Oc3c1ccc1c4c(ccc31)C=[N+](c1ccccc1)[B-]1(O4)c3ccccc3Oc3ccccc31)c1ccccc1Oc1ccccc12 | 605 nm |
| c1ccc(-c2nnc(-c3ccc(N4c5ccccc5N(c5ccccc5)c5ccccc54)cc3)o2)cc1 | 577 nm |
| COc1ccc(/C=C/c2cc(/C=C/c3ccc(OC)cc3)nc(/C=C/c3ccc(C(F)(F)F)cc3)n2)cc1 | 411 nm |
| CC1(C)c2ccccc2N(c2ccc(-c3nc4cccc5c4n3-c3ccccc3C5(C)C)cc2)c2ccccc21 | 450 nm |
| Oc1ccccc1/N=C/c1ccccc1Oc1ccccc1 | 411 nm |

same assay, conditions: in Cc1ccccc1C

| SMILES | emission maximum |
| --- | --- |
| Oc1ccccc1/N=C/c1ccccc1Oc1ccccc1 | 412 nm |

same assay, conditions: in ClC(Cl)Cl

| emission maximum | SMILES |
| --- | --- |
| 558 nm | O=S(=O)(/N=c1\oc2cccc3c4c(-c5ccccc5)oc5cccc(c(c1-c1ccccc1)c23)c54)C(F)(F)F |
| 521 nm | COc1ccc(-c2nc(-c3ccc(C)cc3)c3ccccn23)cc1 |
| 482 nm | CCCCCCN1C(=O)c2cccc3c(-c4ccc(Cl)s4)ccc(c23)C1=O |
| 370 nm | N#Cc1ccc(C#Cc2ccc(C#Cc3ccccc3C#N)cc2C#N)cc1 |
| 542 nm | CCCCN1C(=O)c2ccc3c4c(Br)cc5c6c(ccc(c7c(Br)cc(c2c37)C1=O)c64)C(=O)N(CCCC)C5=O |
| 360 nm | C[Si](C)(C)c1sc([Si](C)(C)C)c2c1sc1c2sc2sc3sc4c(sc5c([Si](C)(C)C)sc([Si](C)(C)C)c54)c3c21 |
| 475 nm | N#Cc1c2oc3ccccc3oc2c(C#N)c2oc3ccccc3oc12 |
| 552 nm | CCCCCCN1C(=O)C(c2ccc(-c3ccc(-n4c5ccccc5c5ccccc54)cc3)cc2)=C(c2ccc(-c3ccc(-n4c5ccccc5c5ccccc54)cc3)cc2)C1=O |

| SMILES | emission maximum |
| --- | --- |
| Oc1ccccc1/N=C/c1ccccc1Oc1ccccc1 | 410 nm |

same assay, conditions: in ClCCl

| SMILES | emission maximum |
| --- | --- |
| CC(C)(C)c1ccc2c3c(c4ccc(C(C)(C)C)cc4c2c1)=[N+]1C(=C(c2ccccc2)c2c(Br)c4c5ccc(C(C)(C)C)cc5c5cc(C(C)(C)C)ccc5c4n2[B-]1(F)F)C=3Br | 717 nm |
| O=S(=O)(/N=c1\oc2cccc3c4c(-c5ccccc5)oc5cccc(c(c1-c1ccccc1)c23)c54)C(F)(F)F | 569 nm |
| CCC1=C(C)C2=Cc3c4ccccc4c4n3[B-](c3ccc5cc6ccccc6cc5c3)(Oc3ccccc3-4)[N+]2=C1C (configuration not stated) | 639 nm |
| c1ccc(N(c2ccccc2)c2ccc(-c3cccc4nc5ccccc5cc34)cc2)cc1 | 555 nm |
| C1=[N+](c2ccccc2)[B-]2(Oc3c1ccc1c4c(ccc31)C=[N+](c1ccccc1)[B-]1(O4)c3ccccc3Oc3ccccc31)c1ccccc1Oc1ccccc12 | 599 nm |
| Nc1cccc2c1ccc1[n+]2[B-](F)(F)n2c-1cc1c3ccccc3c3ccccc3c12 | 580 nm |
| COc1ccc(/C=C/c2cc(/C=C/c3ccc(OC)cc3)nc(/C=C/c3ccc(C(F)(F)F)cc3)n2)cc1 | 441 nm |
| Cc1c(C(=O)c2ccccc2Cl)c2ccc3cccc4c5cccc6ccc1c(c65)c2c34 | 482 nm |
| Oc1ccccc1/N=C/c1ccccc1Oc1ccccc1 | 415 nm |
| CC1(C)c2ccccc2-c2cc3c(cc21)c1ccccc1n3-c1ccc2ccccc2n1 | 438 nm |

same assay, conditions: in N#Cc1ccccc1

| SMILES | emission maximum |
| --- | --- |
| Oc1ccccc1/N=C/c1ccccc1Oc1ccccc1 | 410 nm |

same assay, conditions: in O

| emission maximum | SMILES |
| --- | --- |
| 601 nm | O=S(=O)(/N=c1\oc2cccc3c4c(-c5ccccc5)oc5cccc(c(c1-c1ccccc1)c23)c54)C(F)(F)F |
| 673 nm | CN1/C(=C/C=C(/C=C/c2sc3ccccc3[n+]2C)c2ccccc2)Sc2ccccc21 |
| 451 nm | C=CC1CN2CCC1CC2[C@H](O)c1ccnc2ccc(OC)cc12 (some centres not stated) |
| 397 nm | CCn1c(-c2ccc(-c3ccc(-c4ccc(-c5n(CC)c6ccccc6[n+]5CC)cc4)cc3)cc2)[n+](CC)c2ccccc21 |
| 580 nm | CCN(CC)c1ccc2c(-c3ccccc3C(=O)[O-])c3ccc(=[N+](CC)CC)cc-3oc2c1 |
| 640 nm | O=C(O)C1=C/C(=C/C=[N+]2/c3cc(O)c(C[C@@H]4O[C@H](CO)[C@@H](O)C(O)[C@H]4O)cc3C[C@H]2C(=O)O)C[C@@H](C(=O)O)N1 (some centres not stated) |

same assay, conditions: in O=P(c1ccccc1)(c1ccccc1)c1ccccc1Oc1ccccc1P(=O)(c1ccccc1)c1ccccc1

| SMILES | emission maximum |
| --- | --- |
| CC1(C)c2ccccc2N(c2ccc(-c3nc4cccc5c4n3-c3ccccc3C5(C)C)cc2)c2ccccc21 | 449 nm |

same assay, conditions: in OCC(F)(F)F

| SMILES | emission maximum |
| --- | --- |
| CCC1=C(C)C2=C(C)c3cccn3[B-](F)(F)[N+]2=C1C | 511 nm |

same assay, conditions: in OCCO

| SMILES | emission maximum |
| --- | --- |
| Oc1ccccc1/N=C/c1ccccc1Oc1ccccc1 | 415 nm |
| O=C(O)C1=C/C(=C/C=[N+]2/c3cc(O)c(C[C@@H]4O[C@H](CO)[C@@H](O)C(O)[C@H]4O)cc3C[C@H]2C(=O)O)C[C@@H](C(=O)O)N1 (some centres not stated) | 607 nm |

same assay, conditions: in [2H]O[2H]

| emission maximum | SMILES |
| --- | --- |
| 640 nm | O=C(O)C1=C/C(=C/C=[N+]2/c3cc(O)c(C[C@@H]4O[C@H](CO)[C@@H](O)C(O)[C@H]4O)cc3C[C@H]2C(=O)O)C[C@@H](C(=O)O)N1 (some centres not stated) |

same assay, conditions: in c1cc(-n2c3ccccc3c3ccccc32)cc(-n2c3ccccc3c3ccccc32)c1

| SMILES | emission maximum |
| --- | --- |
| c1ccc(-c2nnc(-c3ccc(N4c5ccccc5N(c5ccccc5)c5ccccc54)cc3)o2)cc1 | 550 nm |

same assay, conditions: in c1ccc2c(c1)c1ccccc1n2-c1ccc(-c2ccc(-n3c4ccccc4c4ccccc43)cc2)cc1

| SMILES | emission maximum |
| --- | --- |
| CCCCCCN1C(=O)C(c2ccc(-c3ccc(-n4c5ccccc5c5ccccc54)cc3)cc2)=C(c2ccc(-c3ccc(-n4c5ccccc5c5ccccc54)cc3)cc2)C1=O | 580 nm |

same assay, conditions: in c1ccccc1

| SMILES | emission maximum |
| --- | --- |
| Oc1ccccc1/N=C/c1ccccc1Oc1ccccc1 | 410 nm |
